Reference: PMC9316317, “Reducing the Kidney Uptake of High Contrast CXCR4 PET Imaging Agents via Linker Modifications” (Pharmaceutics, 2022)
Where a SMILES comes first, the peptide text is derived from it. Side-chain parts run from the residue outwards. [ ]: non-standard residue; d: D form. The star is where a group is joined. DOTA = O=C(O)CN1CCN(CC(=O)O)CCN(CC(=O)*)CCN(CC(=O)O)CC1; 2Nal = N[C@@H](Cc1ccc2ccccc2c1)C(=O)O; dNMeOrn = CN[C@H](CCCN)C(=O)O; 4Amb = NCc1ccc(C(=O)O)cc1

Assays:
[1] = Ex vivo biodistribution in Daudi xenograft-bearing mice; conditions: male, NOD.Cg-Rag1tm1Mom Il2rgtm1Wjl/SzJ (NRG), mouse, iv, total radioactivity; for tissue uptake at 2 h: 2 h p.i.
Description: (§1) Male NOD.Cg-Rag1tm1Mom Il2rgtm1Wjl/SzJ (NRG) mice were obtained from an in-house breeding colony at the Animal Resource Centre of the BC Cancer Research Centre, Vancouver, Canada. Mice (6–10 weeks old, 25–30 g weight) were subcutaneously inoculated with 5 × 10^6 Daudi cells (100 μL; 1:1 ratio of PBS/Matrigel) on the left flank.
(§2) Additional groups of mice received 7.5 µg (0.25–0.3 mg/kg) LY2510924 as a blocking control i.p. 15 min before radiotracer injection, and euthanized 1 h p.i. Tissues were harvested, washed in PBS, blotted dry, and weighed, and radioactivity was counted on a Hidex AMG Automatic Gamma Counter. The counts were decay corrected, converted to absolute units using a calibration curve, and expressed as percent injected dose per gram of tissue (%ID/g).

[2] = test system: CXCR4-expressing Daudi xenograft mice; assay: as above
Description: as §1, §2

[3] = 1 h p.i. blocked with LY2510924, mean

CN1C(=O)[C@@H](Cc2ccc(O)cc2)NC(=O)CNC(=O)[C@H](Cc2ccc3ccccc3c2)NC(=O)[C@H](CCCNC(=N)N)NC(=O)[C@H]1CCCNC(=O)c1ccc(CNC(=O)CN2CCN(CC(=O)O)CCN(CC(=O)O)CCN(CC(=O)O)CC2)cc1 [[68Ga]Ga-Pentixafor, metal not drawn] (cyclo([dY][dNMeOrn]([4Amb-DOTA])R[2Nal]G))
tissue uptake at 1 h ([1]; adrenals, Adrenals uptake, 1 h p.i. blocked with LY2510924, mean): 0.38 %ID/g | tissue uptake at 1 h ([1]; adrenals, Adrenals uptake, 1 h p.i., mean): 0.34 %ID/g | tissue uptake at 2 h ([1]; adrenals, Adrenals uptake, mean): 0.18 %ID/g | tissue uptake at 1 h ([1]; blood, Blood uptake, 1 h p.i. blocked (7.5 µg LY2510924 i.p. 15 min before tracer), mean): 1.23 %ID/g | tissue uptake at 2 h ([1]; blood, Blood uptake, mean): 0.28 ± 0.04 %ID/g | tissue uptake at 1 h ([1]; bone, Bone uptake, 1 h p.i. blocked with LY2510924, mean): 0.27 %ID/g | tissue uptake at 1 h ([1]; bone, Bone uptake, 1 h p.i., mean): 0.18 %ID/g | tissue uptake at 2 h ([1]; bone, Bone uptake, mean): 0.14 %ID/g | tissue uptake at 1 h ([1]; brain, Brain uptake, 1 h p.i. blocked with LY2510924, mean): 0.03 %ID/g | tissue uptake at 1 h ([1]; brain, Brain uptake, 1 h p.i., mean): 0.03 %ID/g | tissue uptake at 2 h ([1]; brain, Brain uptake, mean): 0.01 %ID/g | tissue uptake at 1 h ([1]; fat, Fat uptake, 1 h p.i. blocked with LY2510924, mean): 0.18 %ID/g | tissue uptake at 1 h ([1]; fat, Fat uptake, 1 h p.i., mean): 0.08 %ID/g | tissue uptake at 2 h ([1]; fat, Fat uptake, mean): 0.04 %ID/g | tissue uptake at 1 h ([1]; heart, Heart uptake, 1 h p.i. blocked with LY2510924, mean): 0.47 %ID/g | tissue uptake at 1 h ([1]; heart, Heart uptake, 1 h p.i., mean): 0.36 %ID/g | tissue uptake at 2 h ([1]; heart, Heart uptake, mean): 0.13 %ID/g | tissue uptake at 1 h ([1]; intestine, Intestine uptake, 1 h p.i. blocked with LY2510924, mean): 0.59 %ID/g | tissue uptake at 2 h ([1]; intestine, Intestine uptake, mean): 0.2 %ID/g | tissue uptake at 1 h ([1]; kidney, Kidney uptake, 1 h p.i. blocked with LY2510924, mean): 3.16 %ID/g | tissue uptake at 1 h ([1]; kidney, Kidney uptake, 1 h p.i., mean): 2.78 %ID/g | tissue uptake at 2 h ([1]; kidney, Kidney uptake, mean): 1.76 ± 0.38 %ID/g | tissue uptake at 1 h ([1]; liver, Liver uptake, 1 h p.i. blocked with LY2510924, mean): 1.25 %ID/g | tissue uptake at 1 h ([1]; liver, Liver uptake, 1 h p.i., mean): 1.23 ± 0.15 %ID/g | tissue uptake at 2 h ([1]; liver, Liver uptake, mean): 0.89 ± 0.12 %ID/g | tissue uptake at 1 h ([1]; lung, Lung uptake, 1 h p.i. blocked with LY2510924, mean): 1.39 %ID/g | tissue uptake at 1 h ([1]; lung, Lung uptake, 1 h p.i., mean): 1.16 ± 0.14 %ID/g | tissue uptake at 2 h ([1]; lung, Lung uptake, mean): 0.54 ± 0.08 %ID/g | tissue uptake at 1 h ([1]; muscle, Muscle uptake, 1 h p.i. blocked with LY2510924, mean): 0.26 %ID/g | tissue uptake at 1 h ([1]; muscle, Muscle uptake, 1 h p.i., mean): 0.2 %ID/g | tissue uptake at 2 h ([1]; muscle, Muscle uptake, mean): 0.06 ± 0.02 %ID/g | tissue uptake at 1 h ([1]; pancreas, Pancreas uptake, 1 h p.i. blocked with LY2510924, mean): 0.25 %ID/g | tissue uptake at 1 h ([1]; pancreas, Pancreas uptake, 1 h p.i., mean): 0.21 %ID/g | tissue uptake at 2 h ([1]; pancreas, Pancreas uptake, mean): 0.08 %ID/g | tissue uptake at 1 h ([1]; spleen, Spleen uptake, 1 h p.i. blocked with LY2510924, mean): 0.59 %ID/g | tissue uptake at 1 h ([1]; spleen, Spleen uptake, 1 h p.i., mean): 0.63 %ID/g | tissue uptake at 2 h ([1]; spleen, Spleen uptake, mean): 0.33 %ID/g | tissue uptake at 1 h ([1]; stomach, Stomach uptake, 1 h p.i. blocked with LY2510924, mean): 0.17 %ID/g | tissue uptake at 1 h ([1]; stomach, Stomach uptake, 1 h p.i., mean): 0.13 %ID/g | tissue uptake at 2 h ([1]; stomach, Stomach uptake, mean): 0.05 %ID/g | tissue uptake at 1 h ([1]; testes, Testes uptake, 1 h p.i. blocked with LY2510924, mean): 0.55 %ID/g | tissue uptake at 1 h ([1]; testes, Testes uptake, 1 h p.i., mean): 0.39 %ID/g | tissue uptake at 2 h ([1]; testes, Testes uptake, mean): 0.13 %ID/g | tissue uptake at 1 h ([1]; tumor (Daudi xenograft), Tumor uptake (Daudi xenograft), 1 h p.i. blocked with LY2510924, mean): 0.61 %ID/g | tissue uptake at 1 h ([1]; tumor (Daudi xenograft), Tumor uptake (Daudi xenograft), 1 h p.i., mean): 6.31 ± 1.02 %ID/g | tissue uptake at 2 h ([1]; tumor (Daudi xenograft), Tumor uptake (Daudi xenograft), mean): 5.23 %ID/g | Tumor:Blood ratio [2, 3]: 0.53 | Tumor:Bone ratio [2, 3]: 2.67 | Tumor:Liver ratio [2, 3]: 0.50 | Tumor:Lung ratio [2, 3]: 0.47 | Tumor:Muscle ratio [2, 3]: 2.55 | Tumor:Spleen ratio [2, 3]: 1.14 | Tumor:Blood ratio ([2]; 1 h p.i., mean): 6.53 | Tumor:Bone ratio ([2]; 1 h p.i., mean): 35.99 | Tumor:Kidney ratio ([2]; 1 h p.i., mean): 2.29 ± 0.38 | Tumor:Liver ratio ([2]; 1 h p.i., mean): 5.14 | Tumor:Lung ratio ([2]; 1 h p.i., mean): 5.48 | Tumor:Muscle ratio ([2]; 1 h p.i., mean): 33.25 | Tumor:Spleen ratio ([2]; 1 h p.i., mean): 10.20 | Tumor:Blood ratio ([2]; 2 h p.i., mean): 18.94 | Tumor:Bone ratio ([2]; 2 h p.i., mean): 43.48 | Tumor:Kidney ratio ([2]; 2 h p.i., mean): 3.07 ± 0.54 | Tumor:Liver ratio ([2]; 2 h p.i., mean): 5.93 | Tumor:Lung ratio ([2]; 2 h p.i., mean): 9.95 | Tumor:Muscle ratio ([2]; 2 h p.i., mean): 95.44 | Tumor:Spleen ratio ([2]; 2 h p.i., mean): 16.57
